Consider two compounds from patent publication US20250197799A1, “CELLS DERIVED FROM POLYPEDILUM VANDERPLANKI AND ODOR SENSOR EQUIPPED THEREWITH” (University of Maryland, College Park, priority 2022, published 2025).

One test concerns the target T1, Orco-Or47a (Drosophila melanogaster, UniProt P81921+Q9VNB5).
T1 sequence (Q9VNB5 1-486): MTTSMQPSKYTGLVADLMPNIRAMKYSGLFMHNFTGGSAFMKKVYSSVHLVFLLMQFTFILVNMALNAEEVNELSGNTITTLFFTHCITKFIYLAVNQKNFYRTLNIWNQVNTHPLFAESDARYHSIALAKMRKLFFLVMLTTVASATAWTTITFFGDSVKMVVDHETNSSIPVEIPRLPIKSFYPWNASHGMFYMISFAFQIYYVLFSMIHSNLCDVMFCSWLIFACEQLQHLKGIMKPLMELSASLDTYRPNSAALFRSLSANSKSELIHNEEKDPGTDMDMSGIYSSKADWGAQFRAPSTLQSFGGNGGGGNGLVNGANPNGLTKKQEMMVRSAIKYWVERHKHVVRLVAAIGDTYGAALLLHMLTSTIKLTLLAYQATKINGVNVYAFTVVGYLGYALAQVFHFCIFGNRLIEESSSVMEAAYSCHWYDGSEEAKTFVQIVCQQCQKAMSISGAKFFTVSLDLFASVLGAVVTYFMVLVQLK
T1 sequence (P81921 1-385): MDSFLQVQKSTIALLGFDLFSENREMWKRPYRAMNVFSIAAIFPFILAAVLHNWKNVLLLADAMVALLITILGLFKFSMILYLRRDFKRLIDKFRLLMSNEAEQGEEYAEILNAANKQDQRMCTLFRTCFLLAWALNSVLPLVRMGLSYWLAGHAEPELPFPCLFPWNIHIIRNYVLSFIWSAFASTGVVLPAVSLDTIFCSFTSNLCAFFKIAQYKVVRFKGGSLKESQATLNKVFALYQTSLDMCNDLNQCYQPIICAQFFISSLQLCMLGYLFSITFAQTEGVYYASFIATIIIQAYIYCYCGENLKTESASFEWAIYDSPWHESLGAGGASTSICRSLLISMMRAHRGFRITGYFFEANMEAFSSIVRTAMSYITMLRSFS
In words: Functional confirmation of exogenous membrane proteins in Orco-Or47a stable expression cell line. It is filed as cell-based. Also on record: remnant residues; expressed in transfected cells. The note with it: VUAA1 final 100 μM; pentyl acetate final 1 mM; DMSO negative control. As to the method:
3.2 The functionality of GCaMP6f. The functionality of GCaMP6f in the resulting cell lines was evaluated using Ionomycin (Ionomycin; Fujifilm Wako Pure Chemical) to increase the intracellular concentration of calcium ions to provide functional confirmation of exogenous proteins in the GCaMP6f stable-expressing cell line. Ionomycin was dissolved in dimethyl sulfoxide (DMSO; Fujifilm Wako Pure Chemical Industries, Ltd.), adjusted to a final DMSO concentration of 1% and an ionomycin final concentration of 1 μM in IP1-41 medium, and added to the cell solution. As a negative control, DMSO was adjusted to a final concentration of 1% in IP 1-41 medium and added to the cell solution. Bright-field images and fluorescence images (ex: 470/40 nm; em: 525/50 nm) of the cells before and after solution addition were taken (all-in-one fluorescence microscope BZ-X710, Keyence). […] For statistical analysis of fluorescence intensity, one-way ANOVA was performed using Prism8 (GraphPad), followed by Tukey's multiple comparison test as a post-hoc test,
3.3 Functional confirmation of exogenous membrane proteins in cell lines with stable expression of Orco-Or47a. The amount of fluorescence expression was confirmed by the same operation as in 3.2 above. […] Fluorescence images were taken at an excitation wavelength/emission wavelength of 488 nm/525 nm. […]

The target of a further test is T2, Orco (Drosophila melanogaster, UniProt Q9VNB5).
T2 construct: remnant residues; expressed in transfected cells; host or cells: Pv11 cells (Polypedilum vanderplanki), knock-in at the Pv.00443 locus downstream of the 121 promoter, single-cell sorting
T2 sequence (Q9VNB5 1-486): T1 sequence (Q9VNB5 1-486)
In words: Response of BAM-immobilized Orco stable expression cell line. To be noted: Pv11-GCaMP6f-Orco stable expression cell line immobilized with BAM. Type of test: cell-based. An excerpt:
8.1 Pv11 cell immobilization. A cell membrane modifier (BAM: Biocompatible Anchor for cell Membrane) was used to fix the stable expression cell line obtained above. BAM consists of a hydrophilic PEG chain, an NHS group, and a hydrophobic oleyl group; by bringing BAM into contact with a collagen-coated dish, the NHS group binds to collagen, and the oleyl group interacts with the cell membrane through hydrophobic interactions, allowing cells to adhere. BAM (SUNBRIGHT OE-040CS, Yuka Sangyo Co., Ltd.) was dissolved in DMSO (Fujifilm Wako Pure Chemical Industries) to a concentration of 10 mM. The 10 mM BAM solution was adjusted to DPBS(-) (Thermo Fisher) to a final concentration of 100 μM, 100 μl was dropped onto a collagen 1-coated 48-well microplate (IWAKI) and incubated at 37° C. for 1 hour. The BAM solution was removed, washed once with DPBS(-) (Thermo Fisher) and five times with MilliQ, and allowed to stand still to evaporate water droplets. The Pv11 cell suspension was centrifuged at 700 g for 3 minutes, the supernatant was removed, the cell pellet was suspended in DPBS(-) (Thermo Fisher) and dropped onto a BAM-coated dish. […]
8.2 Functional confirmation of exogenous membrane proteins in fixed cells. […] Each substance was reacted with each cell in the same manner as in 3.2 above, and the fluorescence intensity was measured. […]

As for `CCCCCOC(C)=O` [pentyl acetate], at Orco-Or47a, the fluorescence intensity result is “increase in fluorescence intensity was also observed”. For the same compound, the “response (fluorescence intensity) of immobilized cells” value at Orco is on record as “did not respond”.
For `CCc1ccc(NC(=O)CSc2nnc(-c3cccnc3)n2CC)cc1` [VUAA1, N-(4-ethylphenyl)-2-{[4-ethyl-5-(pyridin-3-yl)-4H-1,2,4-triazol-3-yl]sulfanyl}acetamide], in that order: “increase in fluorescence intensity was observed” and “did respond”.
